Measurements: ChEMBL document CHEMBL5113532, “Design and Characterization of a Natural Arf-GEFs Inhibitor Prodrug CHNQD-01255 with Potent Anti-Hepatocellular Carcinoma Efficacy In Vivo” (J Med Chem, 2022)
pIC50: −log10 of the molar value. In brackets after ≈: the same amount, converted by molar mass. Activity calls are given as the source filed them. The rule behind the calls is not given here.

Key:
[1] = Solubility of the compound in saline/solutol HS-15 (90/10% V/V) at pH 7.4; type: physicochemical
[2] = Solubility of the compound in saline/solutol HS-15 (95/5% V/V) at pH 7.4; type: physicochemical
HepG2 [3] = assay: Antiproliferative activity against human HepG2 cells by MTT assay; type: functional, cell-based
Bel-7402 = assay: Antiproliferative activity against human Bel-7402 cells by MTT assay; type: functional, cell-based
[4] = Solubility of the compound in 0.9% NaCl at pH 7.4; type: physicochemical
[5] = Solubility of the compound in PBS/DMSO (95/5% V/V) at pH 7.2 to 7.4; type: physicochemical
[6] = Solubility of the compound in saline/DMSO/solutol HS-15 (85/5/10% V/V/V) at pH 7.4; type: physicochemical
[7] = Stability of the compound in PBS at pH 4 to 9 measured at 25 degree C measured of 7 days by HPLC analysis; type: physicochemical; conditions: buffer, pH 4, 168 h; time 7 day
[8] = Stability of the compound at 4 to 60 degree C measured of 5 days by HPLC analysis; type: physicochemical; conditions: 120 h; time 5 day
HepG2 [9] = assay: Antitumor activity against human HepG2 cells xenografted in BALB/c nude mouse assessed as reduction in tumor weight at 45 mg/kg, po qd administered daily for 21 consecutive days and measured on day 21; type: functional, organism-based; conditions: time <= 21.0 day
HepG2 [10] = assay: Antitumor activity against human HepG2 cells xenografted in BALB/c nude mouse assessed as tumor growth inhibition at 1 mg/kg, iv qd administered daily for 21 consecutive days and measured every 3 days upto 21 days relative to control; type: functional; conditions: HepG2, 504 h, time <= 21 day, read-out: TGI
[11] = Toxicity in BALB/c mouse xenografted with human HepG2 cells assessed as change in body weight at 1 to 9 mg/kg, iv qd at 45 mg/kg, po treated daily for 21 days measured every 3 days upto 21 days; type: organism-based; conditions: in vivo, 504 h, dose 1-9 mg/kg, time < 21 day
[12] = Half life in ICR mouse at 45 mg/kg, po measured after 0.083 to 12 hrs by UPLC-MS/MS analysis; type: ADME, organism-based; conditions: in vivo, time 0.083-12 hrs
[13] = Cmax in ICR mouse at 45 mg/kg, po measured after 0.083 to 12 hrs by UPLC-MS/MS analysis; type: ADME, organism-based; parameters: dose 45 mg/kg, time upper 12 hrs, time lower 0.083 hrs, route po; conditions: in vivo
[14] = AUC (0 to t) in ICR mouse at 45 mg/kg, po measured after 0.083 to 12 hrs by UPLC-MS/MS analysis; type: ADME, organism-based; parameters: dose 45 mg/kg, time upper 12 hrs, time lower 0.083 hrs, route po; conditions: in vivo
[15] = MRT (0 to t) in ICR mouse at 45 mg/kg, po measured after 0.083 to 12 hrs by UPLC-MS/MS analysis; type: ADME, organism-based; conditions: in vivo, time 0.083-12 hrs
[16] = Apparent volume of distribution in ICR mouse at 45 mg/kg, po measured after 0.083 to 12 hrs by UPLC-MS/MS analysis; type: ADME, organism-based; conditions: in vivo, time 0.083-12 hrs
[17] = Clearance in ICR mouse at 45 mg/kg, po measured after 0.083 to 12 hrs by UPLC-MS/MS analysis; type: ADME, organism-based; conditions: in vivo, time 0.083-12 hrs
[18] = Oral bioavailability in ICR mouse at 45 mg/kg measured after 0.083 to 12 hrs by UPLC-MS/MS analysis; type: ADME, organism-based; conditions: in vivo, time 0.083-12 hrs
[19] = Cmax in ICR mouse at 10 mg/kg, iv measured after 0.083 to 12 hrs by UPLC-MS/MS analysis; type: ADME, organism-based; parameters: time 0.083-12 hrs, dose 10 mg/kg, route iv; conditions: in vivo
[20] = AUC(0 to t) in ICR mouse at 10 mg/kg, iv measured after 0.083 to 12 hrs by UPLC-MS/MS analysis; type: ADME, organism-based; parameters: time upper 12 hrs, dose 10 mg/kg, time lower 0.083 hrs, route iv; conditions: in vivo
[21] = MRT (0 to t) in ICR mouse at 10 mg/kg, iv measured after 0.083 to 12 hrs by UPLC-MS/MS analysis; type: ADME, organism-based; conditions: in vivo, time 0.083-12 hrs
[22] = Drug distribution in ICR mouse Spleen at 100 mg/kg, ip measured upto 0.5 hrs by UPLC-MS/MS analysis; type: ADME, organism-based; conditions: in vivo
[23] = Drug distribution in ICR mouse heart at 100 mg/kg, ip measured upto 0.5 hrs by UPLC-MS/MS analysis; type: ADME, organism-based; conditions: in vivo
[24] = Drug distribution in ICR mouse lung at 100 mg/kg, ip measured upto 0.5 hrs by UPLC-MS/MS analysis; type: ADME, organism-based; conditions: in vivo
[25] = Drug elimination in ICR mouse heart at 100 mg/kg, ip measured for 1.5 hrs by UPLC-MS/MS analysis; type: ADME, organism-based; conditions: in vivo
[26] = Drug elimination in ICR mouse liver at 100 mg/kg, ip measured for 1.5 hrs by UPLC-MS/MS analysis; type: ADME, organism-based; conditions: in vivo
[27] = Drug elimination in ICR mouse lung at 100 mg/kg, ip measured for 1.5 hrs by UPLC-MS/MS analysis; type: ADME, organism-based; conditions: in vivo
[28] = Drug elimination in ICR mouse kidney at 100 mg/kg, ip measured for 1.5 hrs by UPLC-MS/MS analysis; type: ADME, organism-based; conditions: in vivo
[29] = Drug elimination in ICR mouse duodenum at 100 mg/kg, ip measured for 1.5 hrs by UPLC-MS/MS analysis; type: ADME, organism-based; conditions: in vivo
[30] = Acute toxicity in po dosed ICR mouse assessed as maximum tolerated dose; type: organism-based; conditions: in vivo
[31] = Toxicity in ICR mouse assessed as change in body weight at 45 mg/kg, po qd measured for 14 days; type: organism-based; conditions: in vivo, 336 h, time 14 day
[32] = Toxicity in ICR mouse assessed as change in body weight at 100 mg/kg, ip qd measured for 14 days; type: organism-based; conditions: in vivo, 336 h, time 14 day
[33] = Toxicity in ICR mouse assessed as mortality at 45 mg/kg, po qd measured for 14 days; type: organism-based; conditions: in vivo, 336 h, time 14 day
[34] = Toxicity in ICR mouse assessed as mortality at 100 mg/kg, ip qd measured for 14 days; type: organism-based; conditions: in vivo, 336 h, time 14 day
[35] = Hepatotoxicity in ICR mouse assessed as change in blood ALP level at 45 mg/kg, po by biochemical assay; type: toxicity, organism-based; conditions: in vivo
[36] = Renal toxicity in ICR mouse assessed as change in blood CREA level at 45 mg/kg, po by biochemical assay; type: organism-based; conditions: in vivo
[37] = Renal toxicity in ICR mouse assessed as change in blood CK level at 45 mg/kg, po by biochemical assay; type: organism-based; conditions: in vivo
[38] = Toxicity in ICR mouse assessed as effect on heart at 45 mg/kg, po measured after 2 weeks by H and E staining based analysis; type: organism-based; conditions: in vivo, 336 h
[39] = Toxicity in ICR mouse assessed as effect on liver at 45 mg/kg, po measured after 2 weeks by H and E staining based analysis; type: organism-based; conditions: in vivo, 336 h
[40] = Toxicity in ICR mouse assessed as effect on lung at 45 mg/kg, po measured after 2 weeks by H and E staining based analysis; type: organism-based; conditions: in vivo, 336 h
[41] = Toxicity in ICR mouse assessed as effect on kidney at 45 mg/kg, po measured after 2 weeks by H and E staining based analysis; type: organism-based; conditions: in vivo, 336 h
[42] = biological target: Voltage-gated inwardly rectifying potassium channel KCNH2 (Homo sapiens, UniProt Q12809); assay: Inhibtion of hERG transfected in HEK293 cells by whole cell patch clamp method; type: toxicity, cell-based
Voltage-gated inwardly rectifying potassium channel KCNH2, sequence (Q12809 whole entry): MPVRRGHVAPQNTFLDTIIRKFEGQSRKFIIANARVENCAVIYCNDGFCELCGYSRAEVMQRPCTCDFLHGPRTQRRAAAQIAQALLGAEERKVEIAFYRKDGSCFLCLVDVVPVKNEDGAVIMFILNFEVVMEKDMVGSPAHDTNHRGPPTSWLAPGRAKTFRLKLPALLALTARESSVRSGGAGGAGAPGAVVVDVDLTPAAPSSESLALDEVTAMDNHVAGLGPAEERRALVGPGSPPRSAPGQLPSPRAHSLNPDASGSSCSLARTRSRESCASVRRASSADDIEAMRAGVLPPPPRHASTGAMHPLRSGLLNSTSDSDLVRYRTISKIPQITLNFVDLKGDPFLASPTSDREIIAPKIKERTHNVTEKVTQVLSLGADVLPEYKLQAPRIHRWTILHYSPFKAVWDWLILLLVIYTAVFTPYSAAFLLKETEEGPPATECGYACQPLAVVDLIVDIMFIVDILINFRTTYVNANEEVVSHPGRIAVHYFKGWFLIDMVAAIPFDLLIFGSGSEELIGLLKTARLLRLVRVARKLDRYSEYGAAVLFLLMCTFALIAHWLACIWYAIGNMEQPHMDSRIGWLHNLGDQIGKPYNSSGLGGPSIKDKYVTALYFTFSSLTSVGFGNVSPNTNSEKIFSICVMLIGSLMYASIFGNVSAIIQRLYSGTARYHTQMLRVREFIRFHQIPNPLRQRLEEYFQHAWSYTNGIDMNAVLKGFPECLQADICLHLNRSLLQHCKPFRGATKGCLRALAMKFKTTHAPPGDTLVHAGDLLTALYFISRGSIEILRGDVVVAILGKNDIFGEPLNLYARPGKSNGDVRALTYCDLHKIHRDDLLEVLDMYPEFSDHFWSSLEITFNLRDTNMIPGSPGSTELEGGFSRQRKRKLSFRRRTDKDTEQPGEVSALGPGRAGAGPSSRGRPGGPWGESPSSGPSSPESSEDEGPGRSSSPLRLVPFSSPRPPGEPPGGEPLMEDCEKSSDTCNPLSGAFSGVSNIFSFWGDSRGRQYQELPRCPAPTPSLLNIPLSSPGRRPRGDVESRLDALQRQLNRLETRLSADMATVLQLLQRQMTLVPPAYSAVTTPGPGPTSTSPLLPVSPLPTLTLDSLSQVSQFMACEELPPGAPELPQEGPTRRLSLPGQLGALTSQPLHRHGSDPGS

C[C@H]1CCC/C=C/[C@@H]2C[C@H](OC(=O)OCc3cccnc3)C[C@H]2[C@H](O)/C=C/C(=O)O1
solubility [1]: 5000 µg/mL (≈ 12 mM)
solubility [2]: 1000 µg/mL (≈ 2.41 mM)
pIC50 (HepG2 [3]): 7.00
pIC50 (Bel-7402): 7.15
solubility [4]: < 1000 µg/mL
solubility [5]: < 1000 µg/mL
solubility [6]: 15000 µg/mL (≈ 36.1 mM)
Stability [7]: Stable
Stability [8]: Stable
Activity (HepG2 [9]): Active
inhibition in vivo at 1 mg/kg (HepG2 [10]): 36.6%
Activity [11]: Non-Toxic
half-life [12]: 7.35 h
Cmax [13]: 20.3 ng/mL
AUC(0-t) [14]: 52.9 ng·h/mL
MRT last [15]: 2.92 h
Vz [16]: 6339.7436 L/kg
CL/F [17]: 598 L/h/kg
bioavailability [18]: 2.26%
Cmax [19]: 2060 ng/mL
AUC(0-t) [20]: 519 ng·h/mL
MRT last [21]: 0.84 h
Drug uptake [22]: Active
Drug uptake [23]: Active
Drug uptake [24]: Active
Drug excretion [25]: Active
Drug excretion [26]: Active
Drug excretion [27]: Active
Drug excretion [28]: Active
Drug excretion [29]: Active
MTD [30]: > 750 mg/kg
Activity [31]: Non-Toxic
Activity [32]: Non-Toxic
Activity [33]: Non-Toxic
Activity [34]: Non-Toxic
Activity [35]: Non-Toxic
Activity [36]: Non-Toxic
Activity [37]: Non-Toxic
Activity [38]: Non-Toxic
Activity [39]: Non-Toxic
Activity [40]: Non-Toxic
Activity [41]: Non-Toxic
pIC50 [42]: < 4.52
